# Source: patent publication US20130183239A1, “ISOTOPIC CARBON CHOLINE ANALOGS” (IMPERIAL COLLEGE, priority 2010, published 2013)
# Entries after “also recorded” stand apart in the source; their conditions may differ.
# Experiments:
# [1] = mouse, in vivo, 60 min
# Method: (§1) Dynamic [^18F]FCH and [^18F]D4-FCH imaging scans were carried out on a dedicated small animal PET scanner, quad-HIDAC (Oxford Positron Systems). The features of this instrument have been described previously (Barthel, H., et al., Cancer Res 2003; 63(13):3791-8). For scanning the tail veins, vehicle- or drug-treated mice were cannulated after induction of anesthesia (isofluorane/O2/N2O). The animals were placed within a thermostatically controlled jig (calibrated to provide a rectal temperature of ˜37° C.) and positioned prone in the scanner. [^18F]FCH or [^18F]D4-FCH (2.96-3.7 MBq) was injected via the tail vein cannula and scanning commenced. Dynamic scans were acquired in list mode format over a 60 min period as reported previously (Leyton, J., et al., Cancer Research 2006; 66(15):7621-9). The acquired data were sorted into 0.5 mm sinogram bins and 19 time frames (0.5×0.5×0.5 mm voxels; 4×15, 4×60, and 11×300 s) for image reconstruction, which was done by filtered back-projection using a two-dimensional Hamming filter (cutoff 0.6). The image data sets were visualized using the Analyze software (version 6.0; Biomedical Imaging Resource, Mayo Clinic). Cumulative images of 30 to 60 min dynamic data were used for visualization of radiotracer uptake and to draw regions of interest. Regions of interest were defined manually on five adjacent tumor regions (each 0.5 mm thickness). Dynamic data from these slices were averaged for each tissue (liver, kidney, muscle, urine, and tumor) and at each of the 19 time points to obtain time versus radioactivity curves. Corresponding whole body time versus radioactivity curves representing injected radioactivity were obtained by adding together radioactivity in all 200×160×160 reconstructed voxels. Tumor radioactivity was normalized to whole-body radioactivity and expressed as percent injected dose per voxel (% ID/vox). The normalized uptake of radiotracer at 60 min (% ID/vox60) was used for subsequent comparisons. The average of the normalized maximum voxel intensity across five slices of tumor % IDvox60max was also use for comparison to account for tumor heterogeneity and existence of necrotic regions in tumor. The area under the curve was calculated as the integral of % ID/vox from 0 to 60 min.
# [2] = system: human melanoma SKMEL-28 xenografts; details: mouse, in vivo, 60 min
# Method: as §1
# [3] = mouse, in vivo
# Method: Metabolite analysis of tissues including liver, kidney and tumor by HPLC was also accomplished. […] Choline and its metabolites lack any UV chromophore to permit presentation of chromatograms of the cold unlabelled compound simultaneously with the radioactivity chromatograms.
# Liver, kidney, and tumor samples were obtained at 30 min. All samples were snap-frozen in liquid nitrogen. For analysis, samples were thawed and kept at 4° C. immediately before use. To ˜0.2 mL plasma was added ice-cold methanol (1.5 mL). The mixture was then centrifuged (3 min, 15,493×g, 4jC). The supernatant was evaporated to dryness using a rotary evaporator (Heidoloph Instruments) at a bath temperature of 40° C. The residue was suspended in mobile phase (1.1 mL), clarified (0.2 Am filter), and analyzed by HPLC. Liver, kidney, and tumor samples were homogenized in ice-cold methanol (1.5 mL) using an IKA Ultra-Turrax T-25 homogenizer and subsequently treated as per plasma samples (above). All samples were analyzed by radio-HPLC on an Agilent 1100 series HPLC system (Agilent Technologies) equipped with a γ-RAM Model 3 γ-detector (IN/US Systems) and Laura 3 software (Lablogic). The stationary phase comprised a Waters μBondapak C18 reverse-phase column (300×7.8 mm) (Waters, Milford, Mass., USA). Samples were analyzed using a mobile phase comprising solvent A (acetonitrile/water/ethanol/acetic acid/1.0 mol/L ammonium acetate/0.1 mol/L sodium phosphate; 800/127/68/2/3/10) and solvent B (acetonitrile/water/ethanol/acetic acid/1.0 mol/L ammonium acetate/0.1 mol/L sodiumphosphate; 400/400/68/44/88/10) with a gradient of 0% B for 6 min, then 0→100% B in 10 min, 100% B for 0.5 min, 100→0% B in 1.5 min then 0% B for 2 min, delivered at a flow rate of 3 mL/min.
# [4] = Potassium permanganate oxidation study; assay type: physicochemical; details: 1 hour post-treatment with potassium permanganate, room temperature, radio-HPLC
# From the text: Reagents and Conditions: i) KMnO4, Na2CO3, H2O, rt.
# choline oxidase = details: 60 min, 1.76 MBq/mL, pH 7
# [5] = C3H-Hej, mouse, in vivo, iv, 15 min
# HCT116 tumors = assay: PD0325901 treatment of HCT116 tumor-bearing mice with [18F]D4-FCH-PET; assay type: in vivo
# Method: (§2) Size-matched HCT116 tumor bearing mice were randomized to receive daily treatment by oral gavage of vehicle (0.5% hydroxypropyl methylcellulose+0.2% Tween 80) or 25 mg/kg (0.005 mL/g mouse) of the mitogenic extracellular kinase inhibitor, PD0325901, prepared in vehicle. [^18F]D4-FCH-PET scanning was done after 10 daily treatments with the last dose administered 1 h before scanning. […] The results are illustrated in FIGS. 18 and 19.
# These studies were performed in a reproducible tumor model system in which treatment outcomes had been previously characterized, i.e., the human colon carcinoma xenograft HCT116 treated with PD0325901 daily for 10 days (Leyton, J., et al., “Noninvasive imaging of cell proliferation following mitogenic extracellular kinase inhibition by PD0325901”, Mol Cancer Ther 2008; 7(9):3112-21). […] All imaging variables decreased after 10 days of drug treatment (P=0.05, FIG. 18). […] To understand the biomarker changes, the intrinsic cellular effect of PD0325901 on D4-FCH-phosphocholine formation was examined by treating exponentially growing HCT116 cells in culture with PD0325901 for 24 h and measuring the 60-min uptake of [^18F]D4-FCH in vitro.
# CHKA = CHKA expression in exponentially growing cells treated with PD0325901; assay type: cell-based
# HCT116 cells = assay: [18F]D4-FCH-phosphocholine formation in HCT116 cells treated with PD0325901; assay type: cell-based, human; details: PD0325901 1 μM for 24 h, 60-min uptake
# Method: HCT116 cells were grown in T150 flasks in triplicate until they were 70% confluent and then treated with vehicle (1% DMSO in growth medium) or 1 μmol/L PD0325901 in vehicle for 24 h. Cells were pulsed for 1 h with 1.1 MBq of either […]D4—FCH or [^18F]FCH. The cells were washed three times in ice-cold phosphate buffered saline (PBS), scraped into 5 mL PBS, and centrifuged at 500×g for 3 min and then resuspended in 2 mL ice-cold methanol for HPLC analysis as described above for tissue samples. […] Briefly, HCT116 cells were grown in 100 mm dishes in triplicate and incubated with 5.0 MBq [^18F]FCH for 60 min at 37° C. to form the putative [^18F]FCH-phosphate. The cells were washed with 5 mL ice-cold PBS twice and then scraped and centrifuged at 750×g (4° C., 3 min) in 5 mL PBS. Cells were homogenized in 1 mL of 5 mmol/L Tris-HCl (pH 7.4) containing 50% (v/v) glycerol, 0.5 mmol/L MgCl2, and 0.5 mmol/L ZnCl2 and incubated with 10 units bacterial (type III) alkaline phosphatase (Sigma) at 37° C. in a shaking water bath for 30 min to dephosphorylate the [^18F]FCH-phosphate. The reaction was terminated by adding ice-cold methanol. Samples were processed as per plasma above and analyzed by radio-HPLC. Control experiments were done without alkaline phosphatase. […]
# choline kinase A (CHKA) = assay: Western blot of choline kinase A expression in HCT116 tumors after PD0325901; assay type: in vivo, human; details: HCT116 tumors at day 10, western blot
# Method: HCT116 tumors from mice that were injected with PD0325901 (25 mg/kg daily for 10 days, orally) or vehicle were analyzed for CHKA expression by western blotting. β-actin was used as the loading control. (b) Summary densitometer measurements for CHKA expression expressed as a ratio to β-actin. The results are the mean ratios±SE; n=3, * P=0.05.
# as §2
# To understand further the mechanisms regulating [^18F]D4-FCH uptake with drug treatment, changes in CHKA expression in PD0325901 and vehicle-treated tumors excised after PET scanning were assessed.
Bladder (urine) % ID/vox60 [1],Kidney % ID/vox60 [1],Liver radioactivity % ID/vox60 [1],Tumor % ID/vox60 [2],unknown metabolite (possibly the aldehyde intermediate) in liver [3],kidney radioactivity as phosphocholine ([3]; 30 min),kidney radioactivity in the form of betaine ([3]; 30 min),unknown metabolite in kidney ([3]; 30 min),"form of radioactivity in tumors ([3]; iv, 30 min)",parent compound still present [4],parent radiotracer present (choline oxidase),conversion to betaine metabolite in plasma [5],SMILES,"tumor [18F]D4-FCH uptake / retention (HCT116 tumors; HCT116 tumors, 10 days of 25 mg/kg daily vs vehicle, 25 mg/kg)","reduction in tumor size (HCT116 tumors; day 10 compared to the pretreatment group, 25 mg/kg daily, oral)",CHKA expression in vitro (CHKA),[18F]D4-FCH-phosphocholine formation (HCT116 cells),CHKA protein expression in vivo (choline kinase A (CHKA))
6.70±0.71 % ID/vox,15.97±4.65 % ID/vox,18.75±4.28 % ID/vox,5.50±0.49 % ID/vox,not found,31.8±9.8%,53.5±5.3%,3.3±0.6%,significant levels of [^18F]FCH-betaine,less than 40%,11±8%,~80%,"C[N+](C)(C[18F])CCO [[^18F]FCH, [^18F]Fluoromethylcholine, reference compound]",–,–,–,–,–
–,–,–,–,–,–,–,–,–,–,–,–,O=C(NOC[C@H](O)CO)c1ccc(F)c(F)c1Nc1ccc(I)cc1F [PD0325901],significant reduction in tumor [^18F]D4-FCH uptake; also recorded: marked reduction in radiotracer retention,12.2%,reduction of CHKA expression,significantly inhibited,significant reduction
